# Laboratory results reported in patent US5955572A, “Structural mimics of RGD-binding sites” (La Jolla Cancer Research Foundation, priority 1998, dated 1999).
# Where a SMILES comes first, the peptide text is derived from it. Bridges are numbered along the chain shown (N, C = ends).
# Biological target: T1, β3 (109-133) peptide (Homo sapiens, UniProt P05106)
# T1 construct: made in house; host or cells: chemical synthesis
# T1 sequence (P05106 135-159 limits assumed): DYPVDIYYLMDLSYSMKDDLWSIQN
# Experiment: RGD-phage binding to peptides from the β3 integrin subunit
# Details: titration experiments (not shown); read-out: concentration giving 50% inhibition of RGD-binding to β3 (109-133)
compound,measurement,value
CC(C)C[C@@H]1NC(=O)[C@H](Cc2c[nH]c3ccccc23)NC(=O)CNC(=O)[C@H](CC(=O)O)NC(=O)[C@H](CC(=O)O)NC(=O)[C@H](Cc2c[nH]c3ccccc23)NC(=O)[C@@H](N)CSSC[C@@H](C(=O)O)NC1=O (H-CWDDGWLC-OH; disulfide 1-8),IC50,~1 µM
